The subject of one experiment is BT474 cells. Description: Inhibition of cell proliferation, BT474 (CCK-8, 72 h). Type of experiment: cell-based. The conditions noted are these: Homo sapiens, BT-474, 72 h incubation. The method, boiled down: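 BT474 and HCC827 seeded at 10,000 and 3000 cells/well respectively, cultured overnight, then exposed to 10-point 3-fold compound dilutions (top stock 10 mM; 0.25% DMSO final) for 72 h. Viability by CCK-8, OD450; survival normalised to untreated and cell-free blanks, IC50 from curve fit.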

The next experiment addresses HER2 kinase (Homo sapiens (Human), UniProt P04626). Description: Inhibition of HER2 kinase activity (ULight-labeled PolyGT substrate). Type of experiment: biochemical. Conditions: HER2 kinase 10 nM, ATP 10 μM, 2 hours. The method, boiled down: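 HER2 kinase at 10 nM with 10 μM ATP and 100 nM ULight-PolyGT, 5 min enzyme–compound preincubation, then 2 h reaction at room temperature in the dark. Compounds at 11 3-fold concentrations, 2.5 μM top to 0.042 nM, 1% DMSO, duplicates. TR-FRET 665/615 ratio; IC50 from inhibition versus DMSO and no-compound controls.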

In the next experiment the target is EGFR kinase (Homo sapiens (Human), UniProt P00533). In words: Inhibition of EGFR kinase activity (ULight-labeled JAK-1 (Tyr1023) peptide substrate). Type of experiment: biochemical. The conditions noted are these: EGFR kinase 0.35 nM, ATP 150 μM, 2 hours. The method, boiled down: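 TR-FRET kinase assay: 0.35 nM EGFR, 150 μM ATP, 100 nM substrate, 2 h at room temperature in the dark after 5 min enzyme-compound preincubation, 1% DMSO. Compounds tested as 11-point 3-fold series, 2.5 μM to 0.042 nM final, duplicate; IC50 from 665/615 nm ratio-based inhibition.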
Chain of EGFR kinase (P00533 25-1210): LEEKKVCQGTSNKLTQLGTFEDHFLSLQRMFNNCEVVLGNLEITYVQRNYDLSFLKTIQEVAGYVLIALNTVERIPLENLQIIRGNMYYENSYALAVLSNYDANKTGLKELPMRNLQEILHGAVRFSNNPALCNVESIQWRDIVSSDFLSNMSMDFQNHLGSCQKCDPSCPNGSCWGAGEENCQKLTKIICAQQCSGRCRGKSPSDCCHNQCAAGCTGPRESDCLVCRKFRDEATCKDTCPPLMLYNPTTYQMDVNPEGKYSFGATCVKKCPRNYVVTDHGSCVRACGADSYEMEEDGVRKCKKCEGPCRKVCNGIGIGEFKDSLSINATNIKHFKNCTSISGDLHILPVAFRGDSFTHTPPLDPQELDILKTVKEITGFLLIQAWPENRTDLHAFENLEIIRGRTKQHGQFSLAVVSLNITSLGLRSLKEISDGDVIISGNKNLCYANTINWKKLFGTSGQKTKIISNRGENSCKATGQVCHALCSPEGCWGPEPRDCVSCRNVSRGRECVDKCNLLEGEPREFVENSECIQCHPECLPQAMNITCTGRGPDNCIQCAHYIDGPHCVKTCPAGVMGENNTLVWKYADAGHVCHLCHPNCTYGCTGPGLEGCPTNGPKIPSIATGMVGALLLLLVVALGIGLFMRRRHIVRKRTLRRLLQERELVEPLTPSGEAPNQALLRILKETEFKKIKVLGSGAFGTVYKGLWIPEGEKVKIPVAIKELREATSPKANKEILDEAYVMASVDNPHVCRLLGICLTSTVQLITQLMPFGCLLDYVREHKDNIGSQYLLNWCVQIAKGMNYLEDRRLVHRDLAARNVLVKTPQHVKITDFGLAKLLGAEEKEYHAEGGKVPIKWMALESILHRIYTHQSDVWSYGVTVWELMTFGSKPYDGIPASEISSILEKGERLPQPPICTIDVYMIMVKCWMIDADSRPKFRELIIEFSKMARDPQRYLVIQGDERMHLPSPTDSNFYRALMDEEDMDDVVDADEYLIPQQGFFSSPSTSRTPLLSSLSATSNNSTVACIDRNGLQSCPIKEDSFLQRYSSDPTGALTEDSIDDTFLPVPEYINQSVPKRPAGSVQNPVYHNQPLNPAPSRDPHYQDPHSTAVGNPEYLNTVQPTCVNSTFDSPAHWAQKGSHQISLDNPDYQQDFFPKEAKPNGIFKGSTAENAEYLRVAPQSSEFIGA

Where only a bound is given, the exact number is not on record here.

Chain of HER2 kinase (P04626 23-1255): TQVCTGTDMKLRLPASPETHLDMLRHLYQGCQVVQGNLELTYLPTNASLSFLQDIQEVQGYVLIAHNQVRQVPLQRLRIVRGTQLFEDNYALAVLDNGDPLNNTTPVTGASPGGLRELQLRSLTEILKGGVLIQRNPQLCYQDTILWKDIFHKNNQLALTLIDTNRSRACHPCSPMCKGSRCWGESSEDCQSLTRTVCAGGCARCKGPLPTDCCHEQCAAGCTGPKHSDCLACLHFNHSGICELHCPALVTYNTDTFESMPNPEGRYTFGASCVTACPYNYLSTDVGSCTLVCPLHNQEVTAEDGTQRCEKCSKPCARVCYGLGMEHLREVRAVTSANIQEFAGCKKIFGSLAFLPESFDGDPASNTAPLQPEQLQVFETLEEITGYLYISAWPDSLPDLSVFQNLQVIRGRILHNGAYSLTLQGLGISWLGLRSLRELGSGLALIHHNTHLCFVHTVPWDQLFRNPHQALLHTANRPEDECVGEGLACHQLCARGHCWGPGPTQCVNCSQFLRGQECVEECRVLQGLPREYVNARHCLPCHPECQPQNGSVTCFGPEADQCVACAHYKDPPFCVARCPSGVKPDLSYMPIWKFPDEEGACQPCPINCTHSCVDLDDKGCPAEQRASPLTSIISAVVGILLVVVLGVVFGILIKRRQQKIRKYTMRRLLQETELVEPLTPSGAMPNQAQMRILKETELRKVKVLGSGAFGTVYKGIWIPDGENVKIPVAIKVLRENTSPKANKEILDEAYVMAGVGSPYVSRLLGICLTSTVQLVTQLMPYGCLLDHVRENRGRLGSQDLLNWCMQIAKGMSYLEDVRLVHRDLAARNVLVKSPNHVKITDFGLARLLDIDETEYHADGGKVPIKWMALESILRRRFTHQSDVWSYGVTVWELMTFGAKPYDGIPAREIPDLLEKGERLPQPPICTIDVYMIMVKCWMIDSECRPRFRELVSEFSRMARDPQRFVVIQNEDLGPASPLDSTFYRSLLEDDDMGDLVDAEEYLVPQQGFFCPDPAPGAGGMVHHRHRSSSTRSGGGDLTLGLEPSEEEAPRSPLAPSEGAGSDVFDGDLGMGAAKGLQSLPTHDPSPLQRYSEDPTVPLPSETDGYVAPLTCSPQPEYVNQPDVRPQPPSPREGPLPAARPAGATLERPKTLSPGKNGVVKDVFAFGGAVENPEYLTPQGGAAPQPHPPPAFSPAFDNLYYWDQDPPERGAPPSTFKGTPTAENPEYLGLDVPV

As a reminder, the IC50 is the midpoint of a concentration-inhibition curve. For `Cc1cc(Nc2ncnc3ccc4c(c23)OCCN4C(=O)/C=C/CN(C)C(C)C)ccc1Oc1ccn2ncnc2c1` [Example 133, (E)-1-(10-((4-([1,2,4]triazolo[1,5-a]pyridin-7-yloxy)-3-methylphenyl)amino)-2,3-dihydro-4H-[1,4]oxazino[2,3-f]quinazolin-4-yl)-4-(isopropyl(methyl)amino)but-2-en-1-one], the concentration for half-maximal inhibition (IC50) in the experiment with BT474 cells is no more than 50 nM; on HER2 kinase, no more than 50 nM; at EGFR kinase it was 500 to 5000 nM.
For `Cc1cc(Nc2ncnc3ccc4c(c23)OCCN4C(=O)/C=C/CN2CCCCC2)ccc1Oc1ccn2ncnc2c1` [Example 134, (E)-1-(10-((4-([1,2,4]triazolo[1,5-a]pyridin-7-yloxy)-3-methylphenyl)amino)-2,3-dihydro-4H-[1,4]oxazino[2,3-f]quinazolin-4-yl)-4-(piperidin-1-yl)but-2-en-1-one], the 50% inhibitory concentration (IC50) with BT474 cells was no more than 50 nM; against HER2 kinase, no more than 50 nM; against EGFR kinase, 50 to 500 nM.
Take `Cc1cc(Nc2ncnc3ccc4c(c23)OCCN4C(=O)/C=C/CN(C)C2CCC2)ccc1Oc1ccn2ncnc2c1` [Example 135, (E)-1-(10-((4-([1,2,4]triazolo[1,5-a]pyridin-7-yloxy)-3-methylphenyl)amino)-2,3-dihydro-4H-[1,4]oxazino[2,3-f]quinazolin-4-yl)-4-(cyclobutyl(methyl)amino)but-2-en-1-one]: the IC50 in the experiment on BT474 cells was no more than 50 nM; against HER2 kinase, no more than 50 nM; on EGFR kinase it was 50 to 500 nM.
In the case of `COCCN(C)C/C=C/C(=O)N1CCOc2c1ccc1ncnc(Nc3ccc(Oc4ccn5ncnc5c4)c(C)c3)c21` [Example 136, (E)-1-(10-((4-([1,2,4]triazolo[1,5-a]pyridin-7-yloxy)-3-methylphenyl)amino)-2,3-dihydro-4H-[1,4]oxazino[2,3-f]quinazolin-4-yl)-4-((2-methoxyethyl)(methyl)amino)but-2-en-1-one], the half-inhibitory concentration (IC50) in the experiment on BT474 cells was no more than 50 nM; on HER2 kinase, no more than 50 nM; on EGFR kinase, 50 to 500 nM.
On to `CCN(CC)C/C=C/C(=O)N1CCOc2c1ccc1ncnc(Nc3ccc(Oc4ccn5ncnc5c4)c(C)c3)c21` [Example 137, (E)-1-(10-((4-([1,2,4]triazolo[1,5-a]pyridin-7-yloxy)-3-methylphenyl)amino)-2,3-dihydro-4H-[1,4]oxazino[2,3-f]quinazolin-4-yl)-4-(diethylamino)but-2-en-1-one], for which the half-inhibitory concentration (IC50) with BT474 cells is no more than 50 nM; on HER2 kinase, no more than 50 nM; at EGFR kinase, 500 to 5000 nM.

Values taken from patent US11548900B2, “Oxazino-quinazoline and oxazino-quinoline type compound, preparation method and uses thereof” (BEIJING SCITECH-MQ PHARMACEUTICALS LIMITED, priority 2018, dated 2023).
